The source of these data is ChEMBL document CHEMBL1133093, “The PPARs: from orphan receptors to drug discovery” (J Med Chem, 2000).

The target in experiment [1] is T1, Peroxisome proliferator-activated receptor alpha (Mus musculus, UniProt P23204).
T1 sequence (P23204 whole entry): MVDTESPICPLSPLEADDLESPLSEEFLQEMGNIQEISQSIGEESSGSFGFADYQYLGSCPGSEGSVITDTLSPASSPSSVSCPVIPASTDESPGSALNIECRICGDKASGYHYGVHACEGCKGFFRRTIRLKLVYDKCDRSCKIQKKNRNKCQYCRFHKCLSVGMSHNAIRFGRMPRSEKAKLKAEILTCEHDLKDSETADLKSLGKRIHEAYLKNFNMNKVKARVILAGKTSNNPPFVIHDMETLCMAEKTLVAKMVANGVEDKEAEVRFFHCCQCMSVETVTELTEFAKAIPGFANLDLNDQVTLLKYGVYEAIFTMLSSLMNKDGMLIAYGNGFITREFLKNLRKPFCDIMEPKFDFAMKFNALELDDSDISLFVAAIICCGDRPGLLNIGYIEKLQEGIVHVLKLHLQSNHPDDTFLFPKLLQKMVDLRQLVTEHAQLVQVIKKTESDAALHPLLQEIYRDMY
Kind of experiment: Agonist activity for murine PPAR alpha receptor in transcriptional activation assay;IA means inactive at 10 uM. In kind it is functional.

The target of experiment [2] is T2, Peroxisome proliferator-activated receptor delta (Mus musculus, UniProt P35396).
T2 sequence (P35396 whole entry): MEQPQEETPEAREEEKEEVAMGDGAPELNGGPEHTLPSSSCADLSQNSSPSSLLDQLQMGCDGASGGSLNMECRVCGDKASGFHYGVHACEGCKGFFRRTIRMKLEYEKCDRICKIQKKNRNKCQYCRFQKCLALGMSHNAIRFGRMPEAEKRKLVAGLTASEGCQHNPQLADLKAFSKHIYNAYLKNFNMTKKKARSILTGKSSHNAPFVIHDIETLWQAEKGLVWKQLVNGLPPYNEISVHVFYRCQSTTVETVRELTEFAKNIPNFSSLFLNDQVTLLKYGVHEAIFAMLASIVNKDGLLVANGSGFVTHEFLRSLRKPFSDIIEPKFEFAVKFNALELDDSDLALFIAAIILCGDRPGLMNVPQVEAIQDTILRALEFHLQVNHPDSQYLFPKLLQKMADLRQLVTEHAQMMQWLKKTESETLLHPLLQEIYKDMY
Kind of experiment: Agonist activity for murine PPAR delta receptor in transcriptional activation assay. In kind it is functional.

Experiment [3] addresses T3, Peroxisome proliferator-activated receptor alpha (Homo sapiens, UniProt Q07869).
T3 sequence (Q07869 whole entry): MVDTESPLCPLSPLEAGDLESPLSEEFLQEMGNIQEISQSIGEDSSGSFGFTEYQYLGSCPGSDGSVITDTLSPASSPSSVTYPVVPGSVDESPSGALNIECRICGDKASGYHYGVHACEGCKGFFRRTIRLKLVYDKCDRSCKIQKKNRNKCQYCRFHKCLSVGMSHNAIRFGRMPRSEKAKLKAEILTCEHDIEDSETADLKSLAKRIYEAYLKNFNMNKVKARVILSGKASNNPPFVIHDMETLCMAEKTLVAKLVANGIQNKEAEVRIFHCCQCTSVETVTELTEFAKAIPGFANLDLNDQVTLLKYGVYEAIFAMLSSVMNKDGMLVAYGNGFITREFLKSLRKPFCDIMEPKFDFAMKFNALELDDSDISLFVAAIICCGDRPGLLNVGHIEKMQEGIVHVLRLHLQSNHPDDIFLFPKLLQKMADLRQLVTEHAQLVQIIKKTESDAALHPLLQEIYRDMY

Experiment [4] concerns the target T4, Peroxisome proliferator-activated receptor gamma (Homo sapiens, UniProt P37231).
T4 sequence (P37231 whole entry): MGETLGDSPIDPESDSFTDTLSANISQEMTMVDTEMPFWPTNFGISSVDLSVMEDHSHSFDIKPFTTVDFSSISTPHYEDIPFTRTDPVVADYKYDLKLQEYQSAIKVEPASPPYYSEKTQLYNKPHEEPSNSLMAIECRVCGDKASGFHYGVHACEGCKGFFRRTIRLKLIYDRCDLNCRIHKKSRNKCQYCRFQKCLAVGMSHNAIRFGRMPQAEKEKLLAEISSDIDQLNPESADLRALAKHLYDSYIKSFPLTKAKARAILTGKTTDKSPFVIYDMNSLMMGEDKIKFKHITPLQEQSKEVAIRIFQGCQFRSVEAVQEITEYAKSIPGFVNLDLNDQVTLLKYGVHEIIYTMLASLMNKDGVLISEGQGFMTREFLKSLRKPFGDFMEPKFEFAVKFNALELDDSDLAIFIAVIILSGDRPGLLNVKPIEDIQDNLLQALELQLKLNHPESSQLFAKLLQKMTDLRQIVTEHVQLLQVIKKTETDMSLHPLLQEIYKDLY

In experiment [5] the target is T5, Peroxisome proliferator-activated receptor gamma (Mus musculus, UniProt P37238).
T5 sequence (P37238 whole entry): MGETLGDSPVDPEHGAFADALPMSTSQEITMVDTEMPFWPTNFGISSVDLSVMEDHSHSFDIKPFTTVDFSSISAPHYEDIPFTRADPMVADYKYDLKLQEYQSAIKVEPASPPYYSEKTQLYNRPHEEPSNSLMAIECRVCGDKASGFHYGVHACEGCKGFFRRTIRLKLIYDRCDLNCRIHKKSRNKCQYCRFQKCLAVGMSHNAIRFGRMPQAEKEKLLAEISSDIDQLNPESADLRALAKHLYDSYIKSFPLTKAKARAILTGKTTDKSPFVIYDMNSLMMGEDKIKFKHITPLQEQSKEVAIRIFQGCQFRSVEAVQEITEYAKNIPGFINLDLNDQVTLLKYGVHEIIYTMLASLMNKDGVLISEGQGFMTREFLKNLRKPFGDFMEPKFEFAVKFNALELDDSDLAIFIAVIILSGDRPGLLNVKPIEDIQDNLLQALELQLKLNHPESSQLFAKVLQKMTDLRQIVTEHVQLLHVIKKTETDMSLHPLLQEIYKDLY
Description: Agonist activity for murine PPAR gamma receptor in transcriptional activation assay

The target of experiment [6] is T6, Peroxisome proliferator-activated receptor delta (Homo sapiens, UniProt Q03181).
T6 sequence (Q03181 whole entry): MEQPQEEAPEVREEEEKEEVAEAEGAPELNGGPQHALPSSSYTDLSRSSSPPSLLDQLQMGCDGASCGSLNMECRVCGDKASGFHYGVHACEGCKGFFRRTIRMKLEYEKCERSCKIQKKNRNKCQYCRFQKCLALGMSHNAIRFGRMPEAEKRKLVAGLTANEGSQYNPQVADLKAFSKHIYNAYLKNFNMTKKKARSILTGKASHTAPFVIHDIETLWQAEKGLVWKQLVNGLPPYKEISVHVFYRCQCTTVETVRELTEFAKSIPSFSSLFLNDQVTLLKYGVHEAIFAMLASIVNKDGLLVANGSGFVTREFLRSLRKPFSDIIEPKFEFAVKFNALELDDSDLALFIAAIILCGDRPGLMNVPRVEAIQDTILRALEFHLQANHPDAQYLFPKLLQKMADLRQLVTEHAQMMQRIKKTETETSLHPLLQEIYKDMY

Experiment [7] has as its target T1, Peroxisome proliferator-activated receptor alpha. In kind it is functional.
The target of experiment [8] is T3, Peroxisome proliferator-activated receptor alpha. Put plainly: Agonist activity for Human PPAR alpha receptor in transcriptional activation assay; IA means inactive at 10 uM. In kind it is functional.
For experiment [9], the target named is T6, Peroxisome proliferator-activated receptor delta. Kind of experiment: Agonist activity for Human PPAR delta receptor in transcriptional activation assay; IA means inactive at 10 uM. In kind it is functional.
Experiment [10] deals with T1, Peroxisome proliferator-activated receptor alpha. Put plainly: Agonist activity for murine PPAR alpha receptor in transcriptional activation assay; IA means inactive at 10 uM. In kind it is functional.
For experiment [11], the target named is T2, Peroxisome proliferator-activated receptor delta. Put plainly: Agonist activity for murine PPAR delta receptor in transcriptional activation assay; IA means inactive at 10 uM. In kind it is functional.
Experiment [12] has as its target T3, Peroxisome proliferator-activated receptor alpha. Put plainly: Agonist activity for Human PPAR alpha receptor in transcriptional activation assay;IA means inactive at 10 uM. In kind it is functional.
Experiment [13] concerns the target T6, Peroxisome proliferator-activated receptor delta. The source holds these as a separate data set.
Description: Agonist activity for Human PPAR delta receptor in transcriptional activation assay;IA means inactive at 10 uM
Experiment [14] addresses T2, Peroxisome proliferator-activated receptor delta.
Description: Agonist activity for murine PPAR delta receptor in transcriptional activation assay;IA means inactive at 10 uM
The target of experiment [15] is T4, Peroxisome proliferator-activated receptor gamma. Kind of experiment: Agonist activity for Human PPAR gamma receptor in transcriptional activation assay. In kind it is functional.
Experiment [16] deals with T6, Peroxisome proliferator-activated receptor delta. Kind of experiment: Agonist activity for Human PPAR delta receptor in transcriptional activation assay at 100 uM; IA means inactive. In kind it is functional.
Experiment [17] addresses T2, Peroxisome proliferator-activated receptor delta. The source holds these as a separate data set.
Description: Agonist activity for murine PPAR delta receptor in transcriptional activation assay at 100 uM; IA means inactive
Experiment [18] concerns the target T3, Peroxisome proliferator-activated receptor alpha. This is another data set of the same source.
Experiment [19] addresses T6, Peroxisome proliferator-activated receptor delta. This is another data set of the same source.
In experiment [20] the target is T2, Peroxisome proliferator-activated receptor delta. This is another data set of the same source.

For `CCCc1c(OCCCOc2ccc(OCC(=O)O)cc2)ccc(C(C)=O)c1O`, the concentration for a half-maximal effect (EC50) entry in experiment [1] is “Not Active”; in experiment [2] it was 3800 nM; in experiment [3], 10000 nM; in experiment [4], 5.5 µM; in [5], 10000 nM; in [6], 0.53 µM.
Regarding `COc1ccc(CC2SC(=O)NC2=O)cc1C(=O)NCc1ccc(C(F)(F)F)cc1` (centres undefined), the EC50 came out at 10 µM in experiment [7], 7200 nM in [2] and 9.1 µM in experiment [6].
On to `CCOC(Cc1ccc(OCCN(C)c2nc3ccccc3o2)cc1)C(=O)O` (centres undefined), for which the EC50 in experiment [7] is 0.93 µM; in [3], 740 nM.
Regarding `COc1ccc(CCc2c(-c3ccccc3)[nH]c3ccc(CC(=O)O)cc23)cc1`, the EC50 entry was “Not Active” in experiment [8]; “Not Active” in experiment [9]; “Not Active” in [10]; “Not Active” in experiment [11]; 140 nM in experiment [5].
Turning to `CN(CCOc1ccc(C[C@H](Nc2ccccc2C(=O)c2ccccc2)C(=O)O)cc1)c1ccccn1`, the EC50 entry in experiment [12] is “Not Active”; in experiment [1], “Not Active”; in experiment [5] it was 13 nM; in experiment [13], “Not Active”; in [14], “Not Active”.
With `CC(C)(Oc1ccc(CCCN(CCc2c(F)cccc2Cl)C(=O)Nc2cccc(Cl)c2Cl)cc1)C(=O)O`, the half-maximal effective concentration (EC50) in experiment [7] came to 0.27 µM; in [2], 410 nM; in experiment [3], 170 nM; in [4] it was 2.5 µM; in experiment [5] it was 1500 nM.
Consider `CCOC(=O)C(C)(C)Oc1ccc(Cl)cc1` [CLOFIBRATE], for which the EC50 is 500 µM in experiment [15]; “Not Active” in [16]; 50 µM in experiment [7]; 55000 nM in experiment [3]; “Not Active” in [17].
In the case of `Cc1oc(-c2ccccc2)nc1CCOc1ccc(C[C@H](Nc2ccccc2C(=O)c2ccccc2)C(=O)O)cc1` [FARGLITAZAR], the EC50 result in experiment [1], in experiment [13] and in experiment [14] was “Not Active” each time.
Regarding `CC(C)OC(=O)C(C)(C)Oc1ccc(C(=O)c2ccc(Cl)cc2)cc1` [FENOFIBRATE], the EC50 result in [16] and in [17] was “Not Active” each time.
For `COC(=O)c1ccccc1N[C@@H](Cc1ccc(OCCc2nc(-c3ccccc3)oc2C)cc1)C(=O)O` [GW7845], the EC50 entry in experiment [1], in experiment [13] and in experiment [14] was “Not Active” each time.
As for `CCCc1c(OCCCSc2ccc(CC(=O)O)cc2Cl)ccc2c(-c3ccccc3)coc12` [L-796449], the EC50 was 7.6 µM in [7], 23 nM in experiment [2], 4.1 nM in experiment [3] and 10 nM in experiment [5].
Turning to `CCc1ccc(CCOc2ccc(CC3SC(=O)NC3=O)cc2)nc1` (centres undefined) [PIOGLITAZONE], the EC50 entry in experiment [10], in experiment [18], in experiment [19] and in [20] was “Not Active” throughout.
Molecule `Cc1cccc(Nc2cc(Cl)nc(SCC(=O)O)n2)c1C` [PIRINIXIC ACID] gave an EC50 in experiment [5] of 32000 nM.
Turning to `Cc1oc(-c2ccccc2)nc1CCOc1ccc(CC2C(=O)NOC2=O)cc1` (centres undefined) [REGLITAZAR], the half-maximal effective concentration (EC50) in [7] was 4.3 µM; in experiment [3], 1900 nM; in [5] it was 89 nM; in experiment [13], “Not Active”; in [14] it was “Not Active”.
As for `CN(CCOc1ccc(CC2SC(=O)NC2=O)cc1)c1ccccn1` (centres undefined) [ROSIGLITAZONE], the half-maximal effective concentration (EC50) entry in experiment [10] and in experiment [18] was “Not Active” each time.
On to `Cc1c(C)c2c(c(C)c1O)CCC(C)(COc1ccc(CC3SC(=O)NC3=O)cc1)O2` (centres undefined) [TROGLITAZONE], for which the EC50 entry in experiment [10], in experiment [18], in [19] and in experiment [20] was “Not Active” throughout.

Usually EC50 stands for the concentration needed to bring the measured effect to its halfway point. Read a low EC50 as an effect from little substance.
